# “Also recorded” adds a separate entry of the source. Like-named read-outs stand apart in the source and are kept apart here.
# Tests used:
# [1] = system: patients with known EGFR mutations; settings: cited from earlier work
# [2] = design: method as in PMID 26858332; settings: patients using omeprazole; cited from earlier work
# [3] = system: NSCLC patients; design: method as in PMID 16878326; settings: 2000 mg per week; cited from earlier work
# [4] = system: HER2-positive breast cancer; design: method as in PMID 24711549; settings: escalated to 7000 mg on days 1–5 of repeating 14-day cycles, heavily pre-treated patients; cited from earlier work
# [5] = Plasma pharmacokinetics and drug monitoring of high-dose, pulsatile sorafenib (LC-MS/MS, non-compartmental); settings: for Cmax / AUC(0-t): human, oral
# Method: (§1) This single center phase I study was conducted at the Amsterdam UMC, location VUmc, the Netherlands. […] The starting exposure level was 25–50 mg/L/h, analogous to the continuous schedule [23], and was escalated in subsequent cohorts with increments of 25 mg/L/h.
# Per patient a maximum of two dose adjustments were permitted. In addition, the maximum concentration (Cmax) and time of maximum concentration (Tmax) were determined.
# [6] = cited from earlier work
# [7] = system: patients with advanced solid malignancies; settings: in vivo;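 also: Single-center phase I trial, adverse events graded by NCI CTCAE version 4.0, safety checks weekly over the first 8 weeks, then every 4 weeks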
# Method: as §1
# (§2) Each dose was dissolved in either a large glass of water or classic Coca-Cola (the Coca-Cola Company, Atlanta GA) (~ 240 ml).
# (§3) Safety and tolerability assessments, including physical examination, ECG and blood hematology and chemistry, were performed weekly during the first 8 weeks and once every 4 weeks thereafter. Adverse events (AEs) were graded according to the National Cancer Institute Common Terminology Criteria for Adverse Events version 4.0.
# (§4) Dose (/exposure)-limiting toxicity (DLT) was defined as any grade 3 toxicity that occurred within the first 6 weeks of treatment and possibly related to the study drug.
# [8] = system: patients; settings: cited from earlier work
# [9] = cited from earlier work; remark: listed apart in the source
# [10] = cited from earlier work; remark: listed apart in the source
# [11] = Effect of cola versus water on sorafenib exposure (dose normalized Cmax and AUC(0–12 h)); type: in vivo, human; settings: dissolved in cola vs water, patients using PPI
# Description: Descriptive statistics were used to describe patient characteristics, treatment administration, safety, efficacy and pharmacokinetic data. Progression-free survival (PFS) was defined as the time from first treatment until progression of disease or death as a result of any cause. Fisher’s exact tests were used to assess correlations between exposure level or dose and frequency of AEs. […] Data were considered significant at P < 0.05.
# [12] = design: method as in PMID 15613696; settings: 400 mg twice daily; cited from earlier work
# [13] = system: advanced solid malignancies; experiment: Tumor response by CT or MRI using RECIST version 1.1; type: in vivo, human
# Method: Tumor response was assessed by computed tomography or magnetic resonance imaging at baseline and every 8 weeks thereafter using RECIST version 1.1 [24].
# Descriptive statistics were used to describe patient characteristics, treatment administration, safety, efficacy and pharmacokinetic data. […] Fisher’s exact tests were used to assess correlations between exposure level or dose and frequency of AEs. […] Data were considered significant at P < 0.05.
# [14] = system: 789-O renal cell carcinoma xenografts; settings: high-dose schedule; also increased reduction of tumor perfusion and microvessel density; cited from earlier work
# [15] = system: progressive renal cell carcinoma; settings: 600 mg twice daily after failure of standard dosing; cited from earlier work
# [16] = system: patients with advanced solid malignancies; experiment: Phase I safety: treatment-related adverse events (CTCAE v4.0) and dose-limiting toxicity of once weekly high-dose, pulsatile sorafenib;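 also: Single-center phase I trial, adverse events graded by NCI CTCAE version 4.0, safety checks weekly over the first 8 weeks, then every 4 weeks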
# Method: as §1, §2, §3, §4
# [17] = cited from earlier work; remark: listed apart in the source
# [18] = system: advanced solid malignancies; settings: cited from earlier work
structure (smiles),measurement,setting,value
C#Cc1cccc(Nc2ncnc3cc(OCCOC)c(OCCOC)cc23)c1 [erlotinib],tolerability,[1]; erlotinib 450 mg every 3 days or gefitinib 1000 mg every 4 days,well tolerated
same,median PFS,[1]; erlotinib 450 mg every 3 days,6 months
same,response rate,[1]; erlotinib 450 mg every 3 days,15%
same,effect of cola intake on bioavailability,[2],did improve by cola intake
same,mean overall survival (OS),[3],9.5 months
same,tolerability,[3],well tolerated
CS(=O)(=O)CCNCc1ccc(-c2ccc3ncnc(Nc4ccc(OCc5cccc(F)c5)c(Cl)c4)c3c2)o1 [lapatinib],objective response rate,[4],15%
CNC(=O)c1cc(Oc2ccc(NC(=O)Nc3ccc(Cl)c(C(F)(F)F)c3)cc2)cc[n+]1[O-] [sorafenib N-oxide],metabolite as share of the parent drug,[5]; plasma,approximately 4%
CNC(=O)c1cc(Oc2ccc(NC(=O)Nc3ccc(Cl)c(C(F)(F)F)c3)cc2)ccn1 [sorafenib],association of higher AUCmax (> 100 mg/L/h) with outcome,[6],longer progression-free survival
same,"ALP increased, Grade All, no. of patients (%)",[7]; human,3 (20%)
same,"ALP increased, Grade ≥ 3, no. of patients (%)",[7]; human,2 (13%)
same,"Anorexia, Grade All, no. of patients (%)",[7]; human,3 (20%)
same,"Anorexia, Grade ≥ 3, no. of patients (%)",[7]; human,0
same,"Bilirubin increased, Grade All, no. of patients (%)",[7]; human,2 (13%)
same,"Bilirubin increased, Grade ≥ 3, no. of patients (%)",[7]; human,0
same,"Bloating, Grade All, no. of patients (%)",[7]; human,2 (13%)
same,"Bloating, Grade ≥ 3, no. of patients (%)",[7]; human,0
same,"Diarrhea, Grade All, no. of patients (%)",[7]; human,4 (27%)
same,"Diarrhea, Grade ≥ 3, no. of patients (%)",[7]; human,0
same,"Fatigue, Grade All, no. of patients (%)",[7]; human,10 (67%)
same,"Fatigue, Grade ≥ 3, no. of patients (%)",[7]; human,0
same,"GGT increased, Grade All, no. of patients (%)",[7]; human,1 (7%)
same,"GGT increased, Grade ≥ 3, no. of patients (%)",[7]; human,1 (7%)
same,"Multiorgan failure, Grade All, no. of patients (%)",[7]; human,1 (7%)
same,"Multiorgan failure, Grade ≥ 3, no. of patients (%)",[7]; human,1 (7%)
same,"Nausea, Grade All, no. of patients (%)",[7]; human,10 (67%)
same,"Nausea, Grade ≥ 3, no. of patients (%)",[7]; human,0
same,"Perforation, Grade All, no. of patients (%)",[7]; human,2 (13%)
same,"Perforation, Grade ≥ 3, no. of patients (%)",[7]; human,2 (13%)
same,"Stomatitis, Grade All, no. of patients (%)",[7]; human,2 (13%)
same,"Stomatitis, Grade ≥ 3, no. of patients (%)",[7]; human,0
same,"Vomiting, Grade All, no. of patients (%)",[7]; human,8 (53%)
same,"Vomiting, Grade ≥ 3, no. of patients (%)",[7]; human,0
same,"diarrhea, frequency",[7]; human,27%
same,doses from which grade ≥ 3 AEs developed,[7]; human,≥ 2800 mg/week
same,"fatigue, frequency",[7]; human,67%
same,incidence of perforation,[7]; human,13%
same,"nausea, frequency",[7]; human,67%
same,patients requiring dose interruptions,[7]; human,33%
same,patients with dose interruptions due to DLTs leading to permanent study discontinuation,[7]; human,20%
same,"vomiting, frequency",[7]; human,53%
same,"dose-limiting toxicity, one patient","[7]; human, 3 cycles",grade 5 biliary tract perforation
same,frequency and rate of grade ≥ 3 AEs versus dose,[7],increased with a higher dose of sorafenib
same,frequency and rate of grade ≥ 3 AEs versus exposure,[7],did not increase with higher exposure
same,patients with dose-limiting toxicity,[7],three patients
same,incidence of perforation of the gastrointestinal tract,[8]; standard continuous schedule,< 1%
same,most important DLTs,"[8]; standard dose sorafenib, several phase I studies","skin toxicity, diarrhea and fatigue"
same,solubility,[9]; pH 1.0,0.034 mg/100 mL
same,solubility,[9]; pH 4.5,0.013 mg/100 mL
same,enterohepatic circulation,[10],has been observed
same,"Observed AUC(0–12 h) week 3, mean (± SD)","[5]; Cohort 1, target AUC(0–12 h) 25–50 mg/L/h, PK-guided dose week 3 533 (± 306) mg, plasma",31 (± 13) mg/L/h
same,"mean difference between observed and target AUC(0–12 h), week 3","[5]; after drug monitoring / personalized dose titration, SD ± 32%, P = 0.06 vs week 1",2%
same,"mean difference between observed and target AUC(0–12 h), week 1","[5]; fixed starting dose, SD ± 56%",45%
same,Cmax,"[5]; plasma, 533 mg, Cmax week 3, mean (± SD), Cohort 1, PK-guided dose week 3 533 (± 306) mg",4380 ng/mL
same,AUC(0-t),"[5]; plasma, 1000 mg, AUC(0–12 h), range, first exposure cohort, target AUC(0–12 h) 25–50 mg/L/h",61 to 103 µg·h/mL
same,AUC(0-t),"[5]; plasma, 1000 mg, Observed AUC(0–12 h) week 1, mean (± SD), Cohort 1, 3 patients, target AUC(0–12 h) 25–50 mg/L/h, fixed dose week 1 1000 mg",78 µg·h/mL
same,Cmax,"[5]; plasma, 1867 mg, Cmax week 3, mean (± SD), Cohort 2, PK-guided dose week 3 1867 (± 993) mg",11100 ng/mL
same,Cmax,"[5]; plasma, 2000 mg, Cmax week 1, mean (± SD), Cohort 2, 8 patients, fixed dose week 1 2000 mg",13700 ng/mL
same,AUC(0-t),"[5]; plasma, 2000 mg, Observed AUC(0–12 h) week 1, mean (± SD), Cohort 2, 8 patients, target AUC(0–12 h) 75–100 mg/L/h, fixed dose week 1 2000 mg",125 µg·h/mL
same,Cmax,"[5]; plasma, 2333 mg, Cmax week 3, mean (± SD), Cohort 3, PK-guided dose week 3 2333 (± 219) mg",13300 ng/mL
same,Cmax,"[5]; plasma, 2400 mg, Cmax week 1, mean (± SD), Cohort 3, 3 patients, fixed dose week 1 2400 mg",20800 ng/mL
same,Cmax,"[5]; plasma, 2400 mg, Cmax, highest, SD ± 11 mg/L",≤ 21000 ng/mL
same,AUC(0-t),"[5]; plasma, 2400 mg, highest exposure levels, AUC(0–12 h), SD ± 113 mg/L/h",≤ 204 µg·h/mL
same,AUC(0-t),"[5]; plasma, 2800 mg, Observed AUC(0–12 h) week 1, mean (± SD), Cohort 4, 3 patients, target AUC(0–12 h) 125–150 mg/L/h, fixed dose week 1 2800 mg",120 µg·h/mL
same,AUC(0-t),"[5]; plasma, 3600 mg, observed AUC(0–12 h), individual patient, patient with grade 5 biliary tract perforation, sorafenib dose 3600 mg",182 µg·h/mL
same,sorafenib dose up to which mean exposure increased,"[5]; no additional increases thereafter, divided doses of 200–400 mg every 2 h",up to 2400 mg per week
same,accumulation a week after each ingestion,[5]; once weekly,No accumulation
same,effect of cola on sorafenib AUC(0–12 h),[11]; P = 0.24,did not improve sorafenib exposure; also recorded: did not lead to an increase; also recorded: did not affect
same,effect of cola on sorafenib Cmax,[11]; P = 0.33,did not lead to an increase; also recorded: did not affect
same,"mean Cmax, steady state",[12],5400 to 9400 ng/mL
same,"mean sorafenib exposure (AUC), day 1",[12],21.8 to 107 mg/L/h
same,"mean sorafenib exposure (AUC), steady state",[12],47.8 to 71.7 mg/L/h
same,duration of stable disease,"[13]; patient with cholangiocarcinoma, target exposure 75–100 mg/L/h, 2400 mg/week",3 months
same,duration of stable disease,"[13]; patient with hepatocellular carcinoma, target exposure 100–125 mg/L/h, 4800 mg/week",5.5 months
same,complete or partial responses,[13]; thirteen patients evaluable,No complete or partial responses were observed
same,"progressive disease, patients","[13]; thirteen patients evaluable, eleven patients",85%
same,"best response stable disease, patients","[13]; thirteen patients evaluable, two patients",15%
same,tumor growth in comparison to continuous conventional dosing,[14],slower tumor growth
same,patients with tumor reduction,[15],42%
same,tolerated dose in a pulsatile schedule as multiple of conventional dose,[16],~ 3.5 times
same,improvement of absorption by multiple divided doses per day,[17],50%
same,effects of PPI on sorafenib absorption,[17]; contradicting results,no effects to one-third reduction
same,dose above which absorption is saturable,[17]; daily continuous schedule,> 800 mg/day
same,improvement of absorption by a moderate fat meal,[17]; in comparison to a high fat meal of ≥ 50% fat,30%
CCN(CC)CCNC(=O)c1c(C)[nH]c(/C=C2\C(=O)Nc3ccc(F)cc32)c1C [sunitinib],increase of Cmax,[18]; 14 times the conventional dose,18 fold
same,patients with PFS of ≥ 5 months,[18],30%
same,patients with clinical benefit,[18]; more than 70 heavily pre-treated patients,63%

# From publication PMC7188706 (Cancer Chemotherapy and Pharmacology, 2020)
